Test results taken from patent publication US7150974B1, “Parathyroid hormone receptor binding method” (The General Hospital Corporation, priority 1991, dated 2006).

Legend:
Assay type in all cases: binding
[1] = biological target: T1, human kidney PTH/PTHrP receptor (Homo sapiens, UniProt Q03431, L389Q); experiment: Radioreceptor assay, COS-7 cells transiently expressing human kidney PTH/PTHrP receptor (HKrk); settings: human versus rat receptor
T1 construct: The full-length human kidney PTH/PTHrP receptor cDNA, HKrk, was constructed using the BamHI/PvuII fragment of PCR clone #2 and HK-2; expressed in transfected cells; host or cells: COS-7 cells, transient (DEAE/Dextran), pcDNAI
T1 sequence (Q03431 27-593 L389Q): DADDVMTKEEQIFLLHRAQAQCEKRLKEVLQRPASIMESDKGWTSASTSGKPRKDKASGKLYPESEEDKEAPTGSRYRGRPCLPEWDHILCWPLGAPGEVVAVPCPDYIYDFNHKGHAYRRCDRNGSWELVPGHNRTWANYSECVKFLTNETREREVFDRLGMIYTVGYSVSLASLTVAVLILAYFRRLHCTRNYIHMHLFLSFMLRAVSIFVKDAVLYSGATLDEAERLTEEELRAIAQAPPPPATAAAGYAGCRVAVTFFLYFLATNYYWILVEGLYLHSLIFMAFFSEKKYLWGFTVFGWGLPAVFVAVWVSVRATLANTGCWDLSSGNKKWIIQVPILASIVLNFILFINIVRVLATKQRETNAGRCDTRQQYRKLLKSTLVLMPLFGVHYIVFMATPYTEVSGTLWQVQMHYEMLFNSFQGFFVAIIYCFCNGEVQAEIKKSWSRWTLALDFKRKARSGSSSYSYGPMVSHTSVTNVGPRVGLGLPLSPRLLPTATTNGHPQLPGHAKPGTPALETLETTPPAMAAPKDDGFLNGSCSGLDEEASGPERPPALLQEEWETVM
Protocol: (§1) In brief, the labeled peptide was dissolved in 0.1% trifluoracetic acid (TFA), applied to a C18 Sep-pak cartridge (Waters Associates, Inc., Milford, Mass.) and eluted with a solution of 60% acetonitrile in 0.1% TFA. After lyophilization, the radioligand then was applied to C18-μBondapak column (3.9 mm×30 cm. Waters Associates) and eluted over 30 min with a linear gradient of 30-50% acetonitrile-0.1% TFA at a flow rate of 2 ml/min.
(§2) COS-7 cells were grown in 15 cm plates in DMEM, 10% heat-inactivated […], 10 mg/L gentamycin until 80-90% confluent. Twenty-four hours after transfection by the DEAE/Dextran method (Sambrook et al., supra), with 1-2 μg of plasmid DNA, the cells were trypsinized and replated in multiwell plastic dishes (16 or 35 mm diameter, Costar, Cambridge, Mass.) at a cell concentration of 5×10^4 cells/cm^2). […] After continuing culture for another 48 h, radiorecepter assays were performed. The culture medium was replaced with buffer containing 50 mM Tris-HCL (pH 7.7), 100 mM NaCl, 2 mM CaCl2, 5 mM KCL, 0.5% heat-inactivated fetal bovine serum (GIBCO), and 5% heat-inactivated horse serum (KC Biological Inc., Lenexa, Kans.) immediately before studies were initiated.
(§3) Incubations were terminated by aspirating the buffer, and repeatedly (×3) washing the culture dishes, containing the adherent cells with chilled 0.9% NaCl solution, over a 15 sec period. Cell-bound radioactivity was recovered by the sequential addition (×3) of 1 N NaOH (200 μl) to each well. After 30 min at room temperature, the NaOH was transferred to a glass tube. A second and third extraction with 1 N NaOH (200 μl) were combined with the first, and the total radioactivity was counted in a γ-spectrometer (Packard Instruments, Downers Grove, Ill.).

[2] = biological target: T2, opossum kidney PTH/PTHrP receptor clone, OK-H (Didelphis virginiana, UniProt P25107, I132F/S86P); experiment: Radioreceptor assay, COS cells expressing OK-H; settings: FIG. 9
T2 construct: expressed in transfected cells; host or cells: COS cells, transient, plasmid OK-H (pcDNA I)
Protocol: as §1, §2, §3

[3] = biological target: T3, opossum kidney PTH/PTHrp receptor clone, OK-O (Didelphis virginiana, UniProt P25107, I132F/S86P); experiment: Radioreceptor assay, COS cells expressing OK-O; settings: FIG. 11
T3 construct: expressed in transfected cells; host or cells: COS cells, transient, plasmid OK-O (pcDNA I)
Protocol: [Nle^8,Nle^18,Tyr^34]bPTH-(1-34)amide (NlePTH), and [Tyr^36]PTHrP(1-36)amide(PTHrP) were iodinated with Na^125I (carrier free, New England Nuclear, Boston, Mass.) as previously reported (Segre et al., J. Biol. Chem. 254: 6980, 1979), and purified by reverse-phase HPLC. In brief, the labeled peptide was dissolved in 0.1% trifluoracetic acid (TFA), applied to a C18 Sep-pak cartridge (Waters Associates, Inc., Milford, Mass.) and eluted with a solution of 60% acetonitrile in 0.1% TFA. After lyophilization, the radioligand then was applied to C18-μBondapak column (3.9 mm×30 cm. Waters Associates) and eluted over 30 min with a linear gradient of 30-50% acetonitrile-0.1% TFA at a flow rate of 2 ml/min. The radioligand eluted in two peaks; the first peak, which eluted at approximately 38% acetonitrile, was used in these studies because it gave higher total and specific bindings. The specific activity was 500±75 mCi/mg, which corresponds to an average iodine-peptide ratio of 1.
COS-7 cells were grown in 15 cm plates in DMEM, 10% heat-inactivated […], 10 mg/L gentamycin until 80-90% confluent. Twenty-four hours after transfection by the DEAE/Dextran method (Sambrook et al., supra), with 1-2 μg of plasmid DNA, the cells were trypsinized and replated in multiwell plastic dishes (16 or 35 mm diameter, Costar, Cambridge, Mass.) at a cell concentration of 5×10^4 cells/cm^2). Cell number increased only slightly after transfection. After continuing culture for another 48 h, radiorecepter assays were performed. […]
Incubations were terminated by aspirating the buffer, and repeatedly (×3) washing the culture dishes, containing the adherent cells with chilled 0.9% NaCl solution, over a 15 sec period. Cell-bound radioactivity was recovered by the sequential addition (×3) of 1 N NaOH (200 μl) to each well. […] A second and third extraction with 1 N NaOH (200 μl) were combined with the first, and the total radioactivity was counted in a γ-spectrometer (Packard Instruments, Downers Grove, Ill.). […]

[4] = biological target: T4, rat bone PTH/PTHrP receptor (Rattus norvegicus, UniProt P25961, E586G); experiment: Radioreceptor assay, COS cells expressing rat bone PTH/PTHrP receptor (R15B); settings: COS cells expressing R15B, FIG. 13
T4 construct: expressed in transfected cells; host or cells: COS / COS-7 cells, transient, plasmid R15B (pcDNA I)
T4 sequence (P25961 27-591 E586G): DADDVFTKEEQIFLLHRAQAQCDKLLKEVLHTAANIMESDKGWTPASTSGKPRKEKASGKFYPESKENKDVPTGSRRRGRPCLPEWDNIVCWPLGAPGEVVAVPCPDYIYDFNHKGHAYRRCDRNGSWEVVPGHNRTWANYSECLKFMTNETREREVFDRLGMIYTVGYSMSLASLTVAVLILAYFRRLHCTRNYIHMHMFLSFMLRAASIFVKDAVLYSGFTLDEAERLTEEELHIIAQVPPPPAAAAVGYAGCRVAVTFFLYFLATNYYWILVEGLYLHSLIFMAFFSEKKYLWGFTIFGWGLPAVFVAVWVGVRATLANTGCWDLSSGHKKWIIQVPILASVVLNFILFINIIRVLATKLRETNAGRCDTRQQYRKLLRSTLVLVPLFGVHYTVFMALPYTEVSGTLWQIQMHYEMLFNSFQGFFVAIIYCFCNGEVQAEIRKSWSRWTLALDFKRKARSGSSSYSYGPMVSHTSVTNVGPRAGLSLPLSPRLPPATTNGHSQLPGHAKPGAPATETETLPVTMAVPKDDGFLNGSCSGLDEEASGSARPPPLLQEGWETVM
Protocol: as §1, §2, §3

T3 sequence (P25107 27-585 S86P/I132F): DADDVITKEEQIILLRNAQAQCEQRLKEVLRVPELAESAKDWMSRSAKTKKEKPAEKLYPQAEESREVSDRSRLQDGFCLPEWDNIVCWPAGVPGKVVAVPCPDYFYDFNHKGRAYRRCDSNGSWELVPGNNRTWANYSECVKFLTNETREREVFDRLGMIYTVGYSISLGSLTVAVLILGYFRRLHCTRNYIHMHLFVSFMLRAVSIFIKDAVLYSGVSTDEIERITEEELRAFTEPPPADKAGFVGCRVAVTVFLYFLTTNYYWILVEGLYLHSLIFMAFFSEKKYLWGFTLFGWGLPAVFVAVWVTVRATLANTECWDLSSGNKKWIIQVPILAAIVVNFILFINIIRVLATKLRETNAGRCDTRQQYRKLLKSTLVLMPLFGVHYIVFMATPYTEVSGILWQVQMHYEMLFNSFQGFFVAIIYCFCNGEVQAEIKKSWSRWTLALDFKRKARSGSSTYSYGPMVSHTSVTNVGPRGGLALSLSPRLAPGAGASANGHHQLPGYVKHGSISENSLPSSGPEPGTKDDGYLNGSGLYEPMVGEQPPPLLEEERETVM
T2 sequence (P25107 other isoform, or with tags, fused parts or gaps S86P/I132F): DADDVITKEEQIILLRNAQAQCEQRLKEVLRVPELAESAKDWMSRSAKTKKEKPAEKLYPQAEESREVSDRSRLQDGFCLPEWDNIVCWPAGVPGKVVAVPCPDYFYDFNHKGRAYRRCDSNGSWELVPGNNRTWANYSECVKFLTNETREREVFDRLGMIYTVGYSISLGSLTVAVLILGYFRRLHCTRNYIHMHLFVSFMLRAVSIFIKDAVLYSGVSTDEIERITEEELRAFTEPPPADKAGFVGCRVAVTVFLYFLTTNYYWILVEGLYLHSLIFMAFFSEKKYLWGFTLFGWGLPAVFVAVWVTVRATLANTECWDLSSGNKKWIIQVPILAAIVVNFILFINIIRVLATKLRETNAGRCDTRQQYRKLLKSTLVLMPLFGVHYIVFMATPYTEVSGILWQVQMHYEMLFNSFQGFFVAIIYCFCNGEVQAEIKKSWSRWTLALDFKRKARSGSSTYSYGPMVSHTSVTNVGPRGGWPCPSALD

| Substance | fold higher affinity with expressed HKrK than with R15B [1] | inhibition of 125I-PTHrP binding by competitor [2] | inhibition of 125I-PTHrP binding by competitor [3] | inhibition of 125I-PTHrP binding by competitor [4] |
| --- | --- | --- | --- | --- |
| [Nle^8,18, Tyr^34]bPTH(3-34)amide | 7 fold | inhibited | inhibited | inhibited |
| [Nle^8,18, Tyr^34]bPTH(7-34)amide | – | inhibited | inhibited | inhibited |
